The values that follow come from PubChem BioAssay (NCI).

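In this assay, cells in 96-well plates receive the compound at five concentrations for 48 hours. Endpoints are linearly interpolated between the surrounding concentrations. GI50: concentration for 50% inhibition of growth. TGI: concentration producing complete growth inhibition.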

What all share (experiment): inhibition of tumour cell growth, NCI panel, 48 h
Assay [1] has as its system 786-0 renal.
Assay [2] deals with ACHN renal.
In assay [3] the test system is BT-549 breast.
The test system of assay [4] is CAKI-1 renal.
The test system of assay [5] is IGROV1 ovarian.
Assay [6] concerns NCI/ADR-RES ovarian.
Assay [7] relates to OVCAR-8 ovarian.
The test system of assay [8] is SK-MEL-28 melanoma.
Assay [9] relates to HCC-2998 colon.
Assay [10] concerns MCF7 breast.

Consider `CC1(c2ccc(Cl)cc2)c2ccccc2C(=O)N1CCCN1C(=O)c2ccccc2C1=O` (stereo not drawn), for which the TGI in assay [1] was above 100 µM; in assay [2] it was above 100 µM; in [3], above 100 µM; in [4], above 100 µM; in assay [5], 70.4 µM; in assay [6], 76.1 µM. In addition, the TGI in assay [7] and in assay [8] was above 100 µM throughout.
In the case of `CC(C)C(Nc1c2ccccc2[n+](C)c2ccccc12)C(=O)O` (stereo not drawn), the TGI in [1], in assay [2], in assay [4], in [9], in assay [5] and in assay [7] was above 100 µM each time.
Consider `N#Cc1nc(-c2ccsc2)oc1N`, for which the TGI in assay [1], in assay [2], in assay [4], in assay [5], in assay [10] and in assay [7] was above 100 µM in each case. This compound registered a TGI in assay [8] above 100 µM.
Turning to `CC(=O)N1CN2C(=O)CCC2c2cc(C)ccc21` (stereo not drawn), the TGI in [1], in assay [2], in assay [4], in assay [9], in [5] and in assay [10] was above 100 µM throughout. The TGI in [6], in [7] and in assay [8] was above 100 µM throughout.
In the case of `CC(C)(C)c1cc(C(C)(C)C)c2sc(=O)oc2c1O`, the TGI was 38.1 µM in assay [1]; 24.8 µM in assay [2]; 32.9 µM in assay [3]; 25.3 µM in assay [4]; 27.7 µM in assay [5]; 28 µM in assay [10]. Further, the TGI in assay [6] was found to be 30.1 µM; in assay [7] it was 31.2 µM; in assay [8], 32.5 µM.
Consider `Nc1ncnc2c1ncn2C1C(O)C=C(CO)C1O` (stereo not drawn), for which the TGI in assay [4], in assay [9], in assay [5], in [10], in assay [6] and in assay [7] was above 625 µM each time.
Regarding `Cc1cc(C)n(C(=CC(=O)C(Cl)Cl)n2nc(C)cc2C)n1`, the TGI in [1] is 10 µM; in assay [2], 22.3 µM; in assay [3] it was 16.1 µM; in assay [4] it was 19.1 µM; in assay [5], 30.4 µM; in [10], above 100 µM. In addition, the TGI was found to be 10.7 µM in [6] and 21.3 µM in [7].
Take `O=c1[nH]c(NCCCCCO)nc2nc[nH]c12`: the TGI in assay [1], in [2], in assay [3], in assay [4], in [9] and in [5] was above 100 µM each time. The TGI in [6] and in assay [7] was above 100 µM in each case.
On to `O=C(Nc1nnc(-c2ccccc2)o1)C(SC(=S)N1CCCC1)c1ccccc1` (stereo not drawn), for which the TGI in assay [1] is above 100 µM; in [2], above 100 µM; in assay [3], 90 µM; in [4] it was above 100 µM; in assay [5], above 100 µM; in assay [10], above 100 µM. Further, the TGI was 60.1 µM in assay [6], above 100 µM in assay [7] and above 100 µM in assay [8].
As for `CCOC(=O)CCC(C(=O)OCC)n1nnc2cc(Nc3c(C)[n+]([O-])c4cc(Cl)ccc4[n+]3[O-])ccc21` (stereo not drawn), the TGI in assay [1] was above 100 µM; in assay [2], above 100 µM; in assay [3], above 100 µM; in [4] it was above 100 µM; in assay [5], above 100 µM; in assay [10] it was 80 µM. Also, the TGI in assay [6] and in [7] was above 100 µM throughout.
Take `COc1cc(-c2cc(OC)c(OC)c3ccc(Br)cc23)c2cc(Br)ccc2c1OC`: the TGI in [1] is 34.2 µM; in assay [2] it was 51.4 µM; in assay [4], above 100 µM; in [9], 92 µM; in [5], 85.3 µM; in assay [10] it was 85.7 µM. Moreover, the TGI in assay [6] came to 90.1 µM; in assay [8], 45.7 µM.
In the case of `CCOC(=O)/C=C(/OCC)[C@@H]1C(C(=O)c2ccc(Cl)cc2)[C@@H]1/C(=C\C(=O)OCC)OCC` (stereo partly drawn), the TGI in assay [1] was above 100 µM; in assay [2], above 69.1 µM; in [3] it was above 100 µM; in assay [4], above 100 µM; in assay [5] it was above 100 µM; in assay [10] it was above 100 µM. The figures for the TGI in [6], in assay [7] and in assay [8] were above 34 µM, above 100 µM and above 100 µM, respectively.
With `Oc1ccccc1/C=N/c1nc(-c2ccccc2)cs1`, the GI50 in assay [2] is 32.2 µM; in [3], 59.5 µM; in assay [4], 22.5 µM; in [5], above 100 µM; in [10], 14.1 µM; in assay [6] it was above 100 µM. Also, the values for the GI50 in [7] and in assay [8] were 42.9 µM and above 100 µM, respectively. Moreover, the TGI in [2] was above 100 µM; in assay [3], above 100 µM; in [4] it was 62.6 µM; in assay [5] it was above 100 µM; in assay [10], 40.8 µM; in [6] it was above 100 µM. Further, the TGI in assay [7] and in assay [8] was above 100 µM each time.
As for `O=C(CN1CCCC1)Nc1ccc2c(c1)C1Oc3ccccc3CC1CO2` (stereo not drawn), the TGI in assay [1] was 57.1 µM; in [3] it was 75.4 µM; in [4] it was above 100 µM; in assay [9] it was 34.9 µM; in assay [5] it was above 100 µM; in assay [10], 32.4 µM. The TGI in assay [6] and in assay [7] was above 100 µM throughout.
`O=C(O)C1C2OC(C(Br)C2Br)C1C(=O)O` (stereo not drawn): the TGI in assay [1], in assay [2], in assay [3], in assay [4], in assay [5] and in assay [10] was above 100 µM each time. For the same compound, the TGI in assay [6], in assay [7] and in assay [8] was above 100 µM each time.
As for `Cc1cc(C)n(C(C)(C(=O)Cc2ccccc2)n2nc(C)cc2C)n1`, the TGI in assay [1], in assay [2], in [4], in assay [9], in assay [5] and in [10] was above 100 µM in each case. Also, the TGI in assay [6], in assay [7] and in [8] was above 100 µM each time.
With `COc1cc2c(cc1OCCN1CCN(CCOc3cc4c(cc3OC)C(=O)N3CCC[C@H]3C=N4)CC1)N=C[C@@H]1CCCN1C2=O`, the TGI in assay [1] is above 76.8 µM; in assay [2] it was above 91.6 µM; in [3], above 79.1 µM; in assay [4], 49.3 µM; in assay [5] it was above 78.3 µM; in [10], above 100 µM. Further, the TGI in assay [6], in assay [7] and in assay [8] was above 100 µM each time.
As to `CC(C)(C)[C@H]1NC(=O)CN1C(=O)OCc1ccccc1`, the TGI in assay [1], in assay [2], in [3], in [9], in assay [5] and in [10] was above 100 µM throughout. Also, the TGI in [6], in assay [7] and in assay [8] was above 100 µM in each case.
Turning to `CCOC(=O)/C(=C/c1cn(C(C)=O)c2ccccc12)P(=O)(OC)OC`, the TGI in assay [2], in [4], in assay [5], in [10], in [6] and in assay [7] was above 100 µM throughout. Moreover, the TGI in [8] is above 100 µM.
On to `CCCCCCCCCCCCCCCCOC[C@H](COC(c1ccccc1)(c1ccccc1)c1ccccc1)O[P+](=S)OC` (stereo partly drawn), for which the TGI in assay [1], in assay [2], in assay [3], in [4], in assay [5] and in assay [10] was above 100 µM throughout. The TGI in assay [6] and in [7] was above 100 µM in each case.
`CN(CC(=O)O)c1ncc2c(n1)-c1ccccc1CC2`: the TGI in assay [1], in [2], in assay [4], in assay [5], in [10] and in [6] was above 100 µM in each case. Besides, the TGI in assay [7] and in [8] was above 100 µM throughout.
For the compound `CCn1c(-c2cc3ccccc3cc2OC(C)=O)n[nH]c1=S`, the TGI in assay [1] is above 100 µM; in [2] it was above 100 µM; in [4] it was above 100 µM; in assay [9], 38.5 µM; in [5], above 100 µM; in [10] it was above 100 µM. Further, the TGI in assay [6] is 60.9 µM; in [7], above 100 µM; in assay [8], above 100 µM.
Turning to `CN(C)CCCNC(=O)N/N=C/c1ccccn1`, the TGI in assay [2], in assay [9], in assay [5], in [10], in assay [6] and in assay [7] was above 10 µM throughout. In [8], this compound gave a TGI above 10 µM.
For the compound `COC(=O)c1c2c(cc3c1CC1(Cc4cc5c(cc4C1)CCCC5)C3)CCCC2`, the TGI in [1], in assay [2], in [9], in assay [5], in assay [10] and in [6] was above 100 µM in each case. The TGI in assay [7] was above 100 µM.
Take `COc1ccc(C=C2C(C)=NN(c3cccc(Cl)c3)C23C(Cl)C(=O)N3c2nc3ccccc3s2)cc1` (stereo not drawn): the TGI was 29.4 µM in assay [1]; 51.6 µM in [2]; 61 µM in assay [4]; 7.42 µM in [9]; 40.1 µM in assay [5]; 61.4 µM in assay [10]. The TGI in [6] was 85.7 µM; in [7], 42 µM; in [8], 23.9 µM.
Take `CC1CC(C)(C)CC(OCCN2CCCCC2)(c2ccccc2)C1` (stereo not drawn): the TGI in assay [1] came to 22.6 µM; in assay [2], 30.3 µM; in [3] it was 27.8 µM; in assay [4] it was 25.5 µM; in assay [5] it was 27.3 µM; in assay [10] it was 26.4 µM. Also, the TGI in assay [6] was determined as 33.9 µM; in [7] it was 30.3 µM; in assay [8], 29.7 µM.
Regarding `O=c1[nH]c2ccccc2c(=O)n1/N=C\c1ccccc1O`, the TGI in assay [1], in assay [2], in assay [3], in [4], in assay [5] and in assay [10] was above 100 µM in each case. The compound also gave a TGI in assay [8] above 100 µM.
For `c1ccc(CN2CCC(CNc3ncnc4ccccc34)C2)cc1` (stereo not drawn), the TGI in assay [1], in [2], in assay [3], in assay [4], in assay [5] and in [10] was above 100 µM each time. Also, the figures for the TGI in assay [6], in assay [7] and in [8] were above 100 µM, above 100 µM and 85.8 µM, respectively.
Turning to `Cc1cc(C)c(C2=NO[C@@H]3[C@H]2C(=O)C=C2N(Cc4ccccc4)CCO[C@@]23O)c(C)c1`, the TGI in [4], in assay [9], in assay [5], in assay [10], in assay [6] and in [7] was above 100 µM in each case. In [8], this compound had a TGI above 100 µM.
In the case of `C/C(=C\C(=O)O)C(=O)N(C)c1ccccc1I`, the TGI in assay [1], in assay [2], in assay [4], in assay [9], in [10] and in assay [6] was above 100 µM in each case. Moreover, the TGI in assay [7] and in assay [8] was above 100 µM each time.
In the case of `Cn1c(COC(=O)NC2CCCCC2)c(COC(=O)NC2CCCCC2)c2ccc3ccccc3c21`, the TGI in [1] was above 100 µM; in [2], 53.6 µM; in assay [3], above 100 µM; in [4] it was 70.6 µM; in assay [5], above 100 µM; in [10] it was above 100 µM. Besides, the figures for the TGI in assay [6] and in [7] were 62 µM and above 100 µM, respectively.
